In patent US11542515B2, “Methods and compositions for increasing efficiency of targeted gene modification using oligonucleotide-mediated gene repair” (CIBUS US LLC, priority 2016, dated 2023):
Entries after “also recorded” stand apart in the source; their conditions may differ. In the oligonucleotide strings, read from the 5' end, every base follows the letter of its sugar. An asterisk marks phosphorothioate; unmarked linkages are phosphodiester. Other units and linkages are bracketed, terminal groups are in braces. A string of capitals states the bases alone. d = 2'-deoxy (DNA)

How the values were obtained:
flax calli = assay: Glyphosate tolerance of flax calli (fresh weight); format: cell-based, Linum usitatissimum; conditions: edited callus line Y23 / A23, all glyphosate concentrations tested, p<0.01
Protocol: (§1) Glyphosate tolerance of calli and regenerated plants was assessed in vitro and in the greenhouse, respectively. Individual calli were cloned by cutting and culturing smaller pieces in fresh regeneration medium to increase callus mass. Calli derived from wild type leaf protoplasts were used as negative control. Calli derived from subcultures of individual callus lines were then pooled and broken up into 0.5-1 mm pieces by blending in liquid MS medium (4.33 g/L MS salts, 3% sucrose and 0.1% Morel and Wetmore vitamins) and 0.25 ml of settled callus pieces was inoculated on regeneration medium containing 0, 0.125, 0.25, 0.5, 1.0 or 2.0 mM glyphosate. Treatments were performed in triplicate, and the experiments were repeated three times. Prior to spray tests, regenerated plants were subjected to a hardening period in a growth chamber (Conviron, Winnipeg, MB) under a 16-h photoperiod with day and night temperatures 21° C. and 18° C. respectively. Hardened plants were transferred to the greenhouse for glyphosate treatment. Wild type control and EPSPS edited plants were sprayed with 10.5 mM or 21.0 mM glyphosate (Roundup Pro, Monsanto). Treatment rates were normalized to a 75.7 ai/A (active ingredient per acre) spray volume to replicate field conditions. […] Plants were evaluated and photographed 6 days after the glyphosate treatment to determine herbicide tolerance. […]

flax plants = assay: Glyphosate spray test of regenerated flax plants in the greenhouse; format: in vivo, Linum usitatissimum; conditions: 10.5 or 21.0 mM spray, 6 days after treatment
Protocol: as §1

[1] = tested on: blue fluorescent protein (BFP) gene; assay: BFP to GFP conversion by GRON, with or without zeocin/phleomycin, in BFP transgenic protoplasts (flow cytometry); format: cell-based, Arabidopsis thaliana
[2] = tested on: blue fluorescent protein (BFP) gene; assay: as above; format: cell-based, Arabidopsis thaliana; conditions: 250 and 1000 μg/ml, 90 min before GRON
From the text: Sommer et al., (Mol Biotechnol. 33:115-22, 2006) describes a reporter system for the detection of in vivo gene conversion that relies upon a single nucleotide change to convert between blue and green fluorescence in green fluorescent protein (GFP) variants. This reporter system was adapted for use in the following experiments using Arabidopsis thaliana as a model species in order to assess efficiency of GRON mediated conversion.
In short, for this and the subsequent examples an Arabidopsis thaliana line with multiple copies of a blue fluorescent protein gene was created by methods known to those skilled in the art (see, e.g., Clough and Brent, 1998). […]
The purpose of this series of experiments is to compare the conversion efficiencies of the phosphothioate (PS) labeled GRONs with 3PS moieties at each end of the GRON to 2′-O-Me or “2OMe” in the presence and absence of a member of the bleomycin family, Zeocin™ to induce DNA breaks. […] GRONs were delivered into Arabidopsis thaliana BFP protoplasts by PEG treatment and BFP to GFP conversion was determined at 24 h post treatment by cytometry. […]
Seventy-two h after transfection, cells were analyzed by cytometry using the Attune® Acoustic Focusing cytometer (Applied Biosystems®) with excitation and detection of emission as appropriate for GFP. […]

bfp gene = assay: BFP to GFP conversion by CRISPR plasmid plus GRON in BFP transgenic protoplasts (flow cytometry); format: cell-based, Arabidopsis thaliana; conditions: 72 h
Protocol: BFP transgenic Arabidopsis thaliana protoplasts derived from induced root tissue were seeded on a flat-bottom 96-well plate, at 250,000 cells per well at a cell density of 1×10^7 cells/ml. The CRISPR encoded plasmids contain the mannopine synthase (MAS) promoter driving the Cas9 coding sequence with an rbcSE9 terminator and the Arabidopsis U6 promoter driving the sgRNA with a poly-T10 terminator. The CRISPR plasmids along with GRON were introduced into protoplasts by PEG mediated delivery at a final concentration of 0.05 μg/μl and 0.16 μM respectively. Protoplasts were incubated in the dark at 23° C. for 72 hours, and then they were analyzed by flow cytometer in order to determine the percentage of GFP positive protoplasts within a given treatment.
The CRISPR consists of two components: the plant codon-optimized Streptococcus pyogenes Cas9 (SpCas9) and sgRNA both of which were expressed from the same plasmid. The sgRNA is a fusion of CRISPR RNA (crRNA) and trans-activating crRNA (tracrRNA). The crRNA region contains the spacer sequence used to guide the Cas9 nuclease to the BFP target gene (FIG. 3). 201-mer GRONs targeting BFP with or without wobble bases were used to determine their effect on the rate of BFP to GFP conversion.
(§2) BFP transgenic Arabidopsis thaliana protoplasts derived from induced root tissue were seeded on a flat-bottom 96-well plate, at 250,000 cells per well at a cell density of 1×10^7 cells/ml. […] Protoplasts were incubated in the dark at 23° C. for 72 hours, and then they were analyzed by flow cytometer in order to determine the percentage of GFP positive protoplasts within a given treatment. […]
as §2, with “cytometry” for “cytometer”

accase gene = assay: ACCase conversion in rice protoplasts (NGS); format: cell-based, Oryza sativa

## O=C(O)CNCP(=O)(O)O [glyphosate]
Flax calli
  fresh weight of calli with T97I and P101A edits versus wild type calli: significantly higher
Flax plants
  phenotype of wild type plants: wilted and necrotic phenotype typical of glyphosate toxicity
Flax plants; Y23 / A23 plants
  phenotype of plants with the edited EPSPS gene: minimal phenotypic change

## Cc1c(N)nc([C@H](CC(N)=O)NC[C@H](N)C(N)=O)nc1C(=O)N[C@H](C(=O)N[C@H](C)[C@@H](O)[C@H](C)C(=O)N[C@H](C(=O)NCCC1=N[C@@H](c2nc(C(=O)NCCCCN=C(N)N)cs2)CS1)[C@@H](C)O)[C@@H](O[C@@H]1O[C@@H](CO)[C@@H](O)[C@H](O)[C@@H]1O[C@H]1O[C@H](CO)[C@@H](O)[C@H](OC(N)=O)[C@@H]1O)c1cnc[nH]1 [zeocin]
[1]; zeocin 1 mg/ml, 90 min on ice prior to PEG treatment with GRON
  effect of zeocin on BFP to GFP conversion: increased BFP to GFP conversion rates
[2]
  effect of antibiotic pre-treatment on BFP to GFP gene editing: increase in BFP to GFP gene editing

## BFP/41/3PS: BFP GRON with three adjacent PS modifications at each end (sense dG*dC*dT*dGdAdAdGdCdAdCdTdGdCdAdCdGdCdCdGdTdAdGdGdTdAdAdAdCdGdTdGdGdTdCdAdCdGdAdGdGdGdT*dG*dG*dG)
Bfp gene
  BFP to GFP conversion / editing, comparison in words: more BFP to GFP precise scarless edits

## CG2: BFP antisense 41 nb 3PS modified (antisense dG*dC*dT*dGdAdAdGdCdAdCdTdGdCdAdCdGdCdCdGdTdAdGdGdTdGdAdAdGdGdTdGdGdTdCdAdCdGdA*dG*dG*dG)
Bfp gene
  BFP to GFP conversion / editing, comparison in words: more efficacious

## CG3: BFP sense 41 nb 3PS modified (sense CGCTCGTGACCACCTTCACCTACGGCGTGCAGTGCTTCAGC; linkages s3 o34 s3 (s phosphorothioate, o phosphodiester), sugars by position and methylation of C not given here)
Bfp gene
  BFP to GFP conversion / editing, comparison in words: no statistical difference

## phleomycin [reference compound]
[1]; phleomycin 10 μg/mL, GRON BFP/41, 24 h
  number of GFP positive cells compared to the BFP/41/NT control: no improvement
[1]; phleomycin 1000 μg/mL pre-treatment 90 min, GRON BFP/41, 24 h
  BFP to GFP conversion frequency: 0.14%
[2]
  effect of antibiotic pre-treatment on BFP to GFP gene editing: increase in BFP to GFP gene editing; also recorded: dose-dependent increase in GFP positive cells

B1: GRON (SEQ ID NO: 79): Cy3/idC GRON targeting the rice accase gene, Example 21 (nucleic acid)
chain: CTGACCTGAACTTGATCTCAATTAACCCTTGCGGTTCCAGAACATTGCCTTTTGCAGTCCTCTCAGCATAGCACTCAATGCGGTCTGGGTTTATCTTGCTTCCAACGACAACCCAAGCCCCTCCTCGTAGCTCTGCAGCCATGGGAATGTAGACAAAGGCAGGCTGATTGTATGTCCTAAGGTTCTCAACAATAGTCGAGCC
modifications: Cy3 label and idC cap; 5′ CY3/ 3′ 3′DMT dC CPG
Accase gene; CRISPR-Cas plasmid plus GRON, 120 h
  ACCase conversion: 0.026%
Accase gene; GRON only, no CRISPR-Cas, 120 hours
  ACCase conversion: 0.002%
